Here are results for one compound from ChEMBL document CHEMBL3526042, “Mechanism-based inactivation of cytochrome P450 2B6 by methadone through destruction of prosthetic heme” (Drug Metab Dispos, 2012).

Assay type in all cases: ADME; call rule not given here
Series [1] concerns the target T1, Cytochrome P450 2B6 (Homo sapiens, UniProt P20813).
T1 sequence (P20813 whole entry): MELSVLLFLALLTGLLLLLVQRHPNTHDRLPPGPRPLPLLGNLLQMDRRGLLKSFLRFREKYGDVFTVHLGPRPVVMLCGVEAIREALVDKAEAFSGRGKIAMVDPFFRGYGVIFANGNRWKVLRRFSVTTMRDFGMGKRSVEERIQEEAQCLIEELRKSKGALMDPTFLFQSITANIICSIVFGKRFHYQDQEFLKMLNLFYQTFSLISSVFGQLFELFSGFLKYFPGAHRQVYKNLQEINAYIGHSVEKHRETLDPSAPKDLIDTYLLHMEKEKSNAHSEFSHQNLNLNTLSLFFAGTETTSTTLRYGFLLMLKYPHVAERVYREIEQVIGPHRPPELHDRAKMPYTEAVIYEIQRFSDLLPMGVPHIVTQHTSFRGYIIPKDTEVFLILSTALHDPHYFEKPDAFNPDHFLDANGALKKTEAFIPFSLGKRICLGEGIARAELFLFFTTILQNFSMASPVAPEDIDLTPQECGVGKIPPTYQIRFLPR
The experiment in a line: Inactivation of C-terminal His4-tagged human CYP2B6 lacking 21 N-terminal residues expressed in Escherichia coli C41 (DE3) assessed as decreases in fluorescence intensity of 7-hydroxy-4-trifluoromethylcoumarin at 5 to 100 uM at 37 degC. The note with it: TDE = time-dependent effect.

The next series addresses T2, CYP2B6 (Homo sapiens, UniProt P20813).
T2 sequence (P20813 whole entry): T1 sequence (P20813 whole entry)
Description: Inactivation of C-terminal His4-tagged human CYP2B6 lacking 21 N-terminal residues assessed as decrease in enzyme catalytic activity at 100 uM for 15 mins by spectral analysis in presence of NADPH.

Series [2] deals with T1, Cytochrome P450 2B6. The experiment in a line: Irreversible inactivation of C-terminal His4-tagged human CYP2B6 lacking 21 N-terminal residues assessed as decrease in CO difference spectrum measured after overnight dialysis at 100 uM for 15 mins by spectral analysis in presence of NADPH. The settings on record: 0.25 h.
For series [3], the target named is T1, Cytochrome P450 2B6. Description: Irreversible inactivation of C-terminal His4-tagged human CYP2B6 lacking 21 N-terminal residues assessed as decrease in enzyme catalytic activity measured after overnight dialysis at 100 uM for 15 mins by spectral analysis in presence of NADPH. The note with it: 0.25 h.
For series [4], the target named is T1, Cytochrome P450 2B6. Description: Inactivation of C-terminal His4-tagged human CYP2B6 lacking 21 N-terminal residues expressed in Escherichia coli C41 (DE3) assessed as decreases in fluorescence intensity of 7-hydroxy-4-trifluoromethylcoumarin up to 30 mins at 37 degC. The note with it: 0.5 h.

In general, inhibition refers to the share of the control response that was lost under treatment.

`CCC(=O)C(CC(C)N(C)C)(c1ccccc1)c1ccccc1` (racemic) [METHADONE]: the “inhibition (INH)” value is reported as “tde” on Cytochrome P450 2B6 [1], “Active” on Cytochrome P450 2B6 [2], “Active” at Cytochrome P450 2B6 [3] and “Dose-dependent effect” at Cytochrome P450 2B6 [4]. The inhibition at 0.25 h, 100 µM on CYP2B6 was 58%.
